One assay addresses Cholinesterase (Homo sapiens, UniProt P06276). Description: Inhibition of BChE (unknown origin) using butyrylthiocholine chloride as substrate preincubated for 15 min.
Another assay addresses Acetylcholinesterase (Electrophorus electricus, UniProt O42275). The assay can be described thus: Inhibition of Electrophorus electricus (electric eel) acetylcholinesterase (AChE) using acetylthiocholine iodide as substrate preincubated for 15 min.

Among the data in ChEMBL document CHEMBL3046340, “In silico studies on 2,3-dihydro-1,5-benzothiazepines as cholinesterase inhibitors” (Med Chem Res, 2012) are IC50 values, retold here.

By IC50 is commonly meant the concentration that inhibits the measured activity by half.

Acetylcholinesterase, sequence (O42275 whole entry): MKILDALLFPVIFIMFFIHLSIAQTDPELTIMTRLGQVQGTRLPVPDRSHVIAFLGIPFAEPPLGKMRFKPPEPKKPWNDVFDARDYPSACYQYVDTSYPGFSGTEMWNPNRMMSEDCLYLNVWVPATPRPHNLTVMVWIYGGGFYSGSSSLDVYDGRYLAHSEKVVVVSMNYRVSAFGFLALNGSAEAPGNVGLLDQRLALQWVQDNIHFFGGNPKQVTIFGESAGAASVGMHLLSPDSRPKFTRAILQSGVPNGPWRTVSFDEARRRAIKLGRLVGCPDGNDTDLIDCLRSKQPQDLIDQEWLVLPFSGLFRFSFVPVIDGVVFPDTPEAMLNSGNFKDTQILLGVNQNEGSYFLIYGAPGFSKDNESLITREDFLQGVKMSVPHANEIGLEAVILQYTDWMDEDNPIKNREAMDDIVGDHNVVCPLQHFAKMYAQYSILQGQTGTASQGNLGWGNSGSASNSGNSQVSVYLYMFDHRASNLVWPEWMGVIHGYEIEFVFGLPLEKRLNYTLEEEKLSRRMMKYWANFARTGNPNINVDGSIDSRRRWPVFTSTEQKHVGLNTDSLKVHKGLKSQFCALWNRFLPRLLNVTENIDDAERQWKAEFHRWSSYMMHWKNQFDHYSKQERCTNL
Cholinesterase, sequence (P06276 whole entry): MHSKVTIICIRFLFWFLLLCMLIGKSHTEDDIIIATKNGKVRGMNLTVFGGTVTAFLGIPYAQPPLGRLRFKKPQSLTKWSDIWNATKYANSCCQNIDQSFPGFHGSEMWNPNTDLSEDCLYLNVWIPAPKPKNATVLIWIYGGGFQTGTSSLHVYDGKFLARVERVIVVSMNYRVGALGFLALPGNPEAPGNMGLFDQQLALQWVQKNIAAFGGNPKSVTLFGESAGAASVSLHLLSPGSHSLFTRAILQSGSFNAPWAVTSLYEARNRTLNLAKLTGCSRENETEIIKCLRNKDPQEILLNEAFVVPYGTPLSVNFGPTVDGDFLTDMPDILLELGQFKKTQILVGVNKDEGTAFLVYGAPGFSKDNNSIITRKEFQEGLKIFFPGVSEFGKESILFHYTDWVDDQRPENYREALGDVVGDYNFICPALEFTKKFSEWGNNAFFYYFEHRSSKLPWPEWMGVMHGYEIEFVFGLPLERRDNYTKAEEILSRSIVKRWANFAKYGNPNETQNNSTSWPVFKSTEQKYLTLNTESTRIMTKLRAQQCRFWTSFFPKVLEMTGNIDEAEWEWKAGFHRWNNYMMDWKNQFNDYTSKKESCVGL

Take `O=[N+]([O-])c1ccc(C2CC(c3ccccc3)=Nc3ccccc3S2)cc1` (configuration not stated): the IC50 is 60 µM at Cholinesterase (read-out: IC50) and 102 µM at Acetylcholinesterase (read-out: IC50).

In the case of `c1ccc(C2=Nc3ccccc3SC(c3ccccc3)C2)cc1` (configuration not stated), the IC50 result at Cholinesterase and at Acetylcholinesterase was “Not Active” each time.

Turning to `Cc1ccc(C2CC(c3ccccc3)=Nc3ccccc3S2)cc1` (configuration not stated), the IC50 result on Cholinesterase and against Acetylcholinesterase was “Not Active” in each case.

For the compound `COc1ccc(C2CC(c3ccccc3)=Nc3ccccc3S2)cc1OC` (configuration not stated), the IC50 result against Cholinesterase and against Acetylcholinesterase was “Not Active” throughout.

Take `Oc1ccccc1C1=Nc2ccccc2SC(c2ccccc2)C1` (configuration not stated): the IC50 result against Cholinesterase and against Acetylcholinesterase was “Not Active” throughout.

As for `Oc1ccccc1C1=Nc2ccccc2SC(c2ccc(Cl)cc2)C1` (configuration not stated), the IC50 entry against Cholinesterase and at Acetylcholinesterase was “Not Active” throughout.

Turning to `Oc1ccccc1C1=Nc2ccccc2SC(c2ccc(F)cc2)C1` (configuration not stated), the IC50 entry against Cholinesterase and on Acetylcholinesterase was “Not Active” in each case.

For the compound `COc1cccc(C2CC(c3ccccc3O)=Nc3ccccc3S2)c1` (configuration not stated), the IC50 entry against Cholinesterase and at Acetylcholinesterase was “Not Active” in each case.

For `COc1ccc(C2CC(c3ccccc3O)=Nc3ccccc3S2)cc1` (configuration not stated), the IC50 entry at Cholinesterase and against Acetylcholinesterase was “Not Active” each time.

In the case of `Cc1ccc(C2CC(c3ccccc3O)=Nc3ccccc3S2)cc1` (configuration not stated), the IC50 result against Cholinesterase and at Acetylcholinesterase was “Not Active” throughout.

With `Oc1ccccc1C1=Nc2ccccc2SC(c2ccc3c(c2)OCO3)C1` (configuration not stated), the IC50 entry against Cholinesterase and against Acetylcholinesterase was “Not Active” in each case.

For the compound `Oc1cccc(C2=Nc3ccccc3SC(c3ccccc3)C2)c1` (configuration not stated), the figures for the IC50 on Cholinesterase (read-out: IC50) and at Acetylcholinesterase (read-out: IC50) were 142 µM and 40 µM, respectively.

For `COc1ccccc1C1CC(c2cccc(O)c2)=Nc2ccccc2S1` (configuration not stated), on Acetylcholinesterase, the IC50 result is recorded as “Not Active”.

`COc1ccc(C2CC(c3cccc(O)c3)=Nc3ccccc3S2)cc1OC` (configuration not stated): the IC50 entry against Acetylcholinesterase is on record as “Not Active”.

For `O=[N+]([O-])c1ccc(C2CC(c3cccc(O)c3)=Nc3ccccc3S2)cc1` (configuration not stated), the IC50 entry at Cholinesterase and against Acetylcholinesterase was “Not Active” in each case.

Regarding `Cc1ccc(C2CC(c3cccc(O)c3)=Nc3ccccc3S2)cc1` (configuration not stated), at Acetylcholinesterase (read-out: IC50), the IC50 is 49.8 µM.

`Oc1cccc(C2=Nc3ccccc3SC(c3cccnc3)C2)c1` (configuration not stated): the IC50 result on Cholinesterase and against Acetylcholinesterase was “Not Active” throughout.

Turning to `Oc1cccc(C2=Nc3ccccc3SC(c3cccs3)C2)c1` (configuration not stated), the IC50 on Acetylcholinesterase (read-out: IC50) was 5.9 µM.

As to `Oc1cccc(C2=Nc3ccccc3SC(c3ccc(Cl)cc3)C2)c1` (configuration not stated), the IC50 on Cholinesterase (read-out: IC50) worked out at 76.9 µM; on Acetylcholinesterase (read-out: IC50) it was 18.8 µM.

For the compound `CN(C)c1ccc(C2CC(c3cccc(O)c3)=Nc3ccccc3S2)cc1` (configuration not stated), the IC50 entry against Acetylcholinesterase is on record as “Not Active”.

For the compound `Oc1cccc(C2=Nc3ccccc3SC(c3cccc(O)c3)C2)c1` (configuration not stated), the IC50 on Acetylcholinesterase (read-out: IC50) was found to be 71.1 µM.

Take `Oc1cccc(C2=Nc3ccccc3SC(c3ccccc3Cl)C2)c1` (configuration not stated): the IC50 result against Cholinesterase and at Acetylcholinesterase was “Not Active” throughout.

`O=[N+]([O-])c1cccc(C2CC(c3cccc(O)c3)=Nc3ccccc3S2)c1` (configuration not stated): the concentration for half-maximal inhibition (IC50) entry on Cholinesterase and on Acetylcholinesterase was “Not Active” in each case.

As to `Oc1cccc(C2=Nc3ccccc3SC(c3cccc(Cl)c3)C2)c1` (configuration not stated), the concentration for half-maximal inhibition (IC50) result against Acetylcholinesterase is listed as “Not Active”.

For `Oc1cccc(C2=Nc3ccccc3SC(c3ccccc3F)C2)c1` (configuration not stated), the IC50 entry against Cholinesterase is “Not Active”; at Acetylcholinesterase (read-out: IC50), 70.6 µM.

For `Oc1ccc(C2CC(c3cccc(O)c3)=Nc3ccccc3S2)cc1` (configuration not stated), the IC50 entry against Cholinesterase and against Acetylcholinesterase was “Not Active” in each case.

As for `COc1cc(C2CC(c3cccc(O)c3)=Nc3ccccc3S2)ccc1O` (configuration not stated), the IC50 entry against Cholinesterase and at Acetylcholinesterase was “Not Active” in each case.
